Patent US6872850B2, “Small molecule inhibitors of secretion of proteins encoded by ARE-mRNAs” (Message Pharmaceuticals, priority 2001, dated 2005)

Experiments:
3′ UTR of the TNFα gene = experiment: cell-based luciferase reporter assay, 5B cell line (luciferase gene with entire 3′ UTR of the TNFα gene); parameters: species or system mouse; conditions: for Luciferase 5B (% of DMSO control) / Luciferase 5B/3B (% of DMSO control 5B)/(% of DMSO control 3B): 10 μM compound; for Luciferase 5B (% of DMSO control): 1 h, then LPS, 5B cell line; for Luciferase 5B/3B (% of DMSO control 5B)/(% of DMSO control 3B): ratio of 5B to control 3B cell line
Procedure: The candidate compounds were tested in a high-throughput, cell-based luciferase reporter assay. For this assay, a commercially available mouse macrophage Raw 264.7 cell line was stably transfected with a construct containing the CMV promoter operably linked to the luciferase gene which was modified using standard molecular biology techniques to contain the entire 3′ UTR of the TNFα gene. This 3′ UTR is important for the stability and translation of TNFα in cells. To control for effects of candidate compounds that are not specific for TNFα, a control cell line, called “3B,” was generated by stably transfecting the 264.7 cell line with a commercially available construct containing the luciferase gene (without the addition of the heterologous 3′ UTR of the TNFα gene) under the regulation of the CMV promoter.
[…] Then, lipopolysaccharide (LPS) was added to stimulate TNFα secretion. Luciferase activity was measured by determining the luminescence intensity due to the reaction of lucifern, ATP, Mg^2+, and molecular O2 (see, for example, Ausubel et al., supra). The luciferase activity in a cell incubated with a candidate compound was reported as a percentage of the luciferase activity for the corresponding cell incubated with DMSO vehicle only.
After correction for any effect caused by the administration of the DMSO only vehicle control, the effect of a candidate compound on luciferase activity in the 3B control cell line represents the global effect of the compound on any step required for expression or activity of luciferase protein, such as luciferase gene transcription, mRNA processing, mRNA stability, translation, protein stability, or enzymatic activity. […] In this case, the luciferase activity in the 5B cell line treated with the DMSO vehicle control is similar to the luciferase activity in the control 3B cell line treated with the candidate compound. Thus, the response of the 5B cell line (as a percent of the DMSO control) and the ratio of the luciferase activity in the 5B cell line (as a percent of the DMSO control) to the luciferase activity in the control 3B cell line (as a percent of the DMSO control) are similar. In desirable embodiments, the response of the 5B cell line and the 5B/3B ratio differ by less than 50, 40, 30, 20, 10, or 5%.

TNFα = experiment: ELISA of TNFα secreted into the media after LPS; assay type: cell-based; conditions: for TNFα Secretion (% of DMSO control): 10 μM compound, 1 h, then LPS
Procedure: The ability of candidate compounds to reduce the amount of secreted TNFα was also directly tested using an ELISA assay. […] A standard ELISA analysis was used to measure the amount of TNFα secreted into the media (see, for example, Ausubel et al., supra). The effect of a candidate compound on TNFα secretion in this assay is reported in the following tables as a percentage of the amount of TNFα secreted by a control cell that was administered a DMSO vehicle control only.

Compound | effect on luciferase activity in the 5B cell line (luciferase assay), in words (3′ UTR of the TNFα gene) | Luciferase 5B (% of DMSO control) (3′ UTR of the TNFα gene) | Luciferase 5B/3B (% of DMSO control 5B)/(% of DMSO control 3B) (3′ UTR of the TNFα gene) | TNFα Secretion (% of DMSO control) (TNFα) | effect on amount of secreted TNFα (direct TNFα secretion assay), in words (TNFα; after LPS stimulation)
CCCCC(NC(=O)c1cccc(C(C)=NNC(=N)N)c1)C(=O)N1CCN(C(=O)C(Cc2ccccc2)NC(=O)c2ccc(C(=NNC(=N)N)c3ccccc3)cc2)CC1 (mixture of isomers) [MES 10185] | inhibited TNFα secretion | 31 % of DMSO control | 35 (% of DMSO control 5B)/(% of DMSO control 3B) | 37 % of DMSO control | –
CC(=NNC(=N)N)c1cccc(C(=O)NC(CC(C)C)C(=O)N2CCN(C(=O)C(Cc3ccc4ccccc4c3)NC(=O)c3ccc(C(=NNC(=N)N)c4ccccc4)cc3)CC2)c1 (mixture of isomers) [MES 10261] | – | 76 % of DMSO control | 71 (% of DMSO control 5B)/(% of DMSO control 3B) | 40 % of DMSO control | –
CC(=NNC(=N)N)c1cccc(C(=O)NC(CC(C)C)C(=O)N2CCN(C(=O)C(Cc3ccc(Cl)cc3)NC(=O)c3ccc(C(=NNC(=N)N)c4ccccc4)cc3)CC2)c1 (mixture of isomers) [MES 10258] | – | 43 % of DMSO control | 39 (% of DMSO control 5B)/(% of DMSO control 3B) | 42 % of DMSO control | –
CC(=NNC(=N)N)c1cccc(C(=O)NC(CC(C)C)C(=O)N2CCN(C(=O)C(Cc3ccc(-c4ccccc4)cc3)NC(=O)c3ccc(C(=NNC(=N)N)c4ccccc4)cc3)CC2)c1 (mixture of isomers) [MES 10259] | – | 22 % of DMSO control | 38 (% of DMSO control 5B)/(% of DMSO control 3B) | 36 % of DMSO control | –
C/C(=N\NC(=N)N)c1cccc(C(=O)N[C@@H](CC(C)C)C(=O)N2CCN(C(=O)[C@H](Cc3ccccc3)NCc3ccc([N+](=O)[O-])cc3)CC2)c1 [MES 10243] | – | 81 % of DMSO control | 79 (% of DMSO control 5B)/(% of D | 73 % of DMSO control | –
C/C(=N\NC(=N)N)c1cccc(C(=O)N[C@@H](CC(C)C)C(=O)N2CCN(C(=O)[C@H](Cc3ccccc3)NCc3ccccc3)CC2)c1 [MES 10241] | – | 68 % of DMSO control | 90 (% of DMSO control 5B)/(% of D | 100 % of DMSO control | –
CC(C)C[C@H](NC(=O)c1ccccc1)C(=O)N1CCN(C(=O)[C@H](Cc2ccccc2)NC(=O)c2ccc(/C(=N/N=C(N)N)c3ccccc3)cc2)CC1.O=C(O)C(F)(F)F [MES 10249, (E)-Guanylhydrazone of 1-[(S)-N-(4-benzoylbenzoyl)-2-amino-3-phenylpropanoyl]-4-[(2S)-N-(benzoyl)-2-amino-4-methylpentanoyl]-1,4-piperazine trifluoroacetate] | – | 58 % of DMSO control | 68 (% of DMSO control 5B)/(% of D | 40 % of DMSO control | –
(Z,Z)-Bisguanylhydrazone of 1-[(S)-N-(4-benzoylbenzoyl)-2-amino-3-phenylpropanoyl]-4-[(2S)-N-(4-benzoylbenzoyl)-2-amino-4-methylpentanoyl]-1,4-piperazine bis trifluoroacetate [MES 10165] | inhibited TNFα secretion | 37 % of DMSO control | 63 (% of DMSO control 5B)/(% of DMSO control 3B) | 36 % of DMSO control | inhibited TNFα secretion
CC(C)CC(NC(=O)c1ccc(C(=NNC(=N)N)c2ccccc2)cc1)C(=O)N1CCN(C(=O)C(CC2CCCCC2)NC(=O)c2ccc(C(=NNC(=N)N)c3ccccc3)cc2)CC1 (mixture of isomers) [MES 10238] | – | 32 % of DMSO control | 78 (% of DMSO control 5B)/(% of DMSO control 3B) | 23 % of DMSO control | –
